Patent publication US8598145B2, “Mitochondrially delivered anti-cancer compounds” (priority 2008, dated 2013)
Read-outs that look alike come from different tables or passages of the source.

Key:
MS cells = experiment: ROS production by flow cytometry, mammosphere cells (FIG. 8); type: cell-based, human; conditions: 3 h; α-TOS 50 μM, MitoVES homologues 5 μM
Procedure: Adherent MCF7 cells and the corresponding mammosphere cells (MS) were cultured and assessed for morphological changes by microscopy (A) and for expression levels of markers as indicators of “sternness” by RT-PCR (B) and flow cytometry (C), including the expression of CD44 and CD24 (D). The adherent MCF7 cells (E) and the MS cells (F) were treated with 5 μM MitoVES, 50 μM α-TOS or 10 μM parthenolide and assessed for their sensitivity to drug induced cell death. […] Adherent MCF7 cells (I) and MS cells (J) were treated for 3 h with α-TOS (50 μM) or MitoVES homologues containing different lengths in the aliphatic side chain (5 μM each, either 11, 7 or 5 carbon chain in length) and the treated cells assessed for production of reactive oxygen species (ROS) by flow cytometry.
Cellular ROS were detected indirectly by flow cytometry and directly by electron paramagnetic resonance (EPR) spectroscopy, following treatment of cells with α-TOS as indicated in the Legend to Figures. […] For indirect evaluation, cells were treated with α-TOS and reacted with dihydrodichlorofluorescein diacetate (DCF; Molecular Probes) for 30 min, and scored by flow cytometry for cells with high fluorescence, which was evaluated on the bases on increase in mean fluorescence intensity. […]

EAhy926 cells [1] = conditions: level taken from Dong et al, Cancer Res 2007; cited from earlier work
T lymphoma cells = conditions: medium pH ~6.2 compared to pH 7.2; cited from earlier work
[2] = pH 6.2 versus pH 7.4 of the medium; cited from earlier work
EAhy926 cells [3] = experiment: Angiogenesis in vitro: wound-healing and tube-forming (FIG. 7); type: cell-based, human
Procedure: Wound-healing (A-F) and tube-forming activity (G, H) were assessed using the EC EAhy926 cells. For wound-healing activity, the cells were seeded in 35-mm Petri dishes and allowed to reach 100% confluency. The ‘injury’ was then performed, resulting in a denuded gap of 0.4-0.5 mm. Wound-healing activity in control cells and cells supplemented with 1, 5 or 10 μM MitoVES was assessed on the basis of proliferation and migration of cells into the denuded zone using a light microscope equipped with a grid and a digital camera (A). […] In panel C, representative images of injured control cells and cells treated with 10 μM MitoVES at different times are presented. […] EAhy926 cells were seeded at ˜10^5 per well in Matrigel-coated 24-well plates and allowed for 24 h to form tubes at the absence or presence of MitoVES. Complete capillaries connecting points of individual polygons (see General Materials and Methods) were counted per the field of 0.16 mm^2 and took as a measure of the tube-forming activity (F). […] At 20 h of treatment, the cells were retrieved from the Matrigel and assessed for apoptosis using the Annexin V binding method (H). Parental EAhy926 cells and their ρ^0 counterparts were seeded in Petri dishes at confluency, ‘injured’ as described above, and the wound-healing activity assessed in the absence or presence of 10 μM MitoVES (MVES) (I; see symbols above panel L). The healing rate was estimated from the slopes in panel I and plotted in […] (J). At 20 h, the cells were assessed for the level of apoptosis (K). Panel L documents tube-forming activity in Matrigel of the ρ^0 EAhy 926 cells in the absence or presence of 5 μM MitoVES. […]
To assess the effect of α-TOS on the wound-healing activity of the EAhy926 cells, the cells were seeded in […] Petri dishes and allowed to reach complete confluence. […] Regrowth of cells (wound healing) in the presence of α-TOS or α-TEA was assessed by following the kinetics of narrowing the denuded gap in the microscope equipped with a grid in the eyepiece and healing expressed as the ‘rate of filling the gap’ as the rate of healing in μm/h. […]

SMILES | ROS production in MS cells (MS cells) | concentration needed for comparable levels of effects on endothelial cells (EAhy926 cells [1]) [µM] | greater apoptogenic efficacy at acidic pH (T lymphoma cells) [times] | uptake of the compound at lower pH [2] | fold greater potency as antiangiogenic drug than α-TOS (EAhy926 cells [3]; relative to α-TOS) [fold] | concentration needed for comparable levels of effects on endothelial cells (EAhy926 cells [3]; same endothelial cell types) [µM] | angiogenesis in vitro (EAhy926 cells [3]; wound-healing, tube-forming and apoptosis assays)
Cc1c(C)c2c(c(C)c1OC(=O)CCC(=O)O)CC[C@@](C)(CCC[C@H](C)CCC[C@H](C)CCCC(C)C)O2 [α-TOS, α-tocopheryl succinate, reference compound] | much lower levels | 25 to 50 | ~3 | about twice as much |  |  | 
Cc1c(C)c2c(c(C)c1OC(=O)CCC(=O)[O-])CCC(C)(CCCCCCCCCCC[P+](c1ccccc1)(c1ccccc1)c1ccccc1)O2 (stereo not shown) [MitoVE11S] |  |  |  |  | 5 | 5 to 10 | inhibits angiogenesis in vitro
